Experimental data: patent US20250154193A1, “STEROID COMPOUND, AND PREPARATION METHOD THEREFOR AND APPLICATION THEREOF” (CHOLESGEN (SHANGHAI) CO., LTD., priority 2022, published 2025)

Columns and labels:
liver organoids [1] = test: Real-time quantitative PCR of lipogenesis- and fibrosis-related genes in fatty liver organoids; type: cell-based, mice; settings: mouse fatty liver organoids, 1 and 3 μM, 72 hours, qPCR
From the text: Liver samples or liver organoid samples were homogenized in TRI Reagent (T9424, Sigma), and total RNA was extracted according to the manufacturer's instructions. Equal amounts of RNA template were used to synthesize cDNA with oligo dT primers and MLV reverse transcriptase (Promega). Quantitative data for genes were collected using the Bio-Rad CFX96 real-time PCR system, and the relative amount of gene mRNA was quantified using the comparative CT method.
(§1) C57BL/6N mice were fed with fatty liver-inducing diet (TrophicDiet, TP2630052A, containing 10.2% kcal protein, 37.3% kcal carbohydrate, and 52.6% kcal fat) and fructose-containing drinking water (23.1 g of fructose and 18.9 g of dextrose were dissolved in 1 L of water, then filtered and sterilized) for a total of 16 weeks starting at 12 weeks of age to generate a fatty liver model. To generate fatty liver organoids, liver tissues from mice with fatty liver were minced and digested in digestion buffer at 37° C. for 30 to 60 minutes. The digestion buffer included DMEM/F-12 (Cytiva, SH30023.01), 2.5 mg/mL collagenase D (Roche, COLLD-RO), and 0.1 mg/mL DNaseI (Sigma-Aldrich, DN25). […]
To distinguish whether the inhibitory effect of 25-hydroxylanosterol is directly based on its effect on the liver or a systemic effect, we utilized 3D liver organoids as an in vitro model for the study of fatty liver to analyze the effect of 25-hydroxylanosterol on lipogenesis and fibrosis marker expression in liver organoids. […] RNA from the organoids was collected and analyzed for the differential expression of lipogenesis-related genes (Hmgcs, Hmgcr, SCD1, and FASN) and fibrosis markers (αSMA and Colla1) using fluorescent real-time quantitative PCR.
(§2) In FIGS. 35 and 36, data are represented as mean±standard deviation. P values were calculated using one-way ANOVA; ns indicates no statistical difference; * indicates P<0.05; ** indicates P<0.01; *** indicates P<0.001. In FIGS. 47 and 53, quantitative analysis was performed using ImageJ software. […] P values were calculated using one-way ANOVA; * indicates P<0.05; ** indicates P<0.01; *** indicates P<0.001.

liver organoids [2] = test: Nile Red and αSMA immunofluorescence staining of fatty liver organoids; type: cell-based, mice; settings: mouse fatty liver organoids, 1 and 3 μM, 72 hours
Experimental: as §1, with “DN25). Isolated single hepatocytes were filtered through a 70 μm filter membrane and washed once. Cells were collected by centrifugation, and resuspended in a mixture of culture medium and basement membrane extract (BME) (R&D Systems, 3533-010-02) at a ratio of 1:3.” for “DN25).”
as §2

Ldlr−/− mice = test: Sudan IV staining of atherosclerotic plaques of the aortic tree; type: in vivo; settings: AMLN diet, intragastrically once a day, 8 weeks, vs control group
From the text: After the administration experiment in mice, the aorta was isolated and fixed in 4% PFA. Perivascular adipose tissues were removed with ophthalmic forceps under a stereo microscope, stained with Sudan IV, and atherosclerotic plaques were washed in 70% ethanol. After staining, the aortic tree was imaged using a ZEISS Axio Zoom.V16 stereo microscope. Atherosclerotic lesions were quantified using ImageJ software.
AMLN-fed Ldlr^−/− mice also served as a common model for atherosclerosis, allowing simultaneous study of both fatty liver and atherosclerosis. Male Ldlr^−/− mice at 8 weeks of age were fed with AMLN diet and intragastrically administered once a day for a total of 8 weeks. After the mice were euthanized, the aorta was isolated and fixed in 4% paraformaldehyde. Perivascular adipose tissues were removed under a stereo microscope, stained with Sudan IV, and rinsed with 70% ethanol. The aortic tree was imaged using a stereo microscope (Axio Zoom.V16, ZEISS, Germany). Atherosclerotic plaques were quantified using ImageJ software.

With `C[C@H](CCCC(C)(C)O)[C@H]1CC[C@@]2(C)C3=C(CC[C@]12C)[C@@]1(C)CC[C@H](O)C(C)(C)[C@@H]1CC3` [compound 68, (1R,3aR,5aR,7S,9aS,11aR)-1-[(2R)-6-hydroxy-6-methylheptan-2-yl]-3a,6,6,9a,11a-pentamethyl-2,3,3a,4,5,5a,6,7,8,9,9a,10,11,11a-tetradecahydro-1H-cyclopenta[1,2-a]phenanthren-7-ol] the “expression levels of fibrosis-related genes (Col1a1 and αSMA)” value (liver organoids [1]) was “significantly inhibited”, the “expression levels of lipogenesis-related genes (Hmgcs, Hmgcr, SCD1, and FASN)” value (liver organoids [1]) was “significantly inhibited” and the “expression of fibrosis marker protein αSMA (immunofluorescence staining)” value (liver organoids [2]) was “decreasing”. The “lipid accumulation in organoids (Nile Red staining)” value (liver organoids [2]) was “reduced” and the “formation and quantity of atherosclerotic plaques (Sudan IV staining of aortic tree)” value (Ldlr−/− mice) was “significantly reduced”.
